Laboratory results published in patent US12692249B2, “WDR5 inhibitors and modulators” (Vanderbilt University, priority 2019, dated 2026).
Like-named read-outs stand apart in the source and are kept apart here.

Experiments:
WDR5 = WDR5 (Homo sapiens, UniProt P61964); assay: TR-FRET competition binding assay, displacement of 10mer-Thr-FAM MLL peptide probe from His-tagged WDR5; settings: WDR5-His tag (residues 24-334) 2 nM; 10mer-Thr-FAM 150 nM; 60 min, room temperature; read-out: Ki for Inhibition of WDR5 by TR-FRET assay
Description: Time Resolved-Fluorescence Energy Transfer Competition Assay […] Excess 10mer-Thr-FAM probe was utilized with His-tagged WDR5 in conjunction with a commercial anti-His antibody containing a Terbium label. The LanthaScreenTM Elite Tb-anti-HIS Antibody from ThermoFisher Scientific was used for this purpose. […] The 10mer-Thr-FAM probe when bound to WDR5 will undergo a FRET interaction with the Tb-anti-HIS and emit at 520 nm. […] WDR[…] 10[…] used at 150 nM. […] A source plate is prepared using an Echo Liquid Handler, which distributes the compounds to the assay plate (white, flat-bottom; OptiPlate) in a 10-point, 5-fold dilution schemes with a top concentration of 5 μM, in a final volume of 20 μL. […] The final DMSO concentration in each well of the assay plate is 1% or lower. The plate is covered, shielded from light, and incubated for 60 minutes at room temperature with rocking. 10mer-Thr-FAM and Anti-His terbium antibody fluorescence is then measured on a Biotek Cytation 3 at excitation wavelength of 340 nm, and emission wavelengths of 495 nm and 520 nm. […] TR-FRET signal is plotted and IC50 and Ki values are calculated according to the formula of Wang Z. FEBS Lett (1996) 3, 245. Ki=[I]50/([L]50/Kd+[P]0/Kd+1) where [I]50 is the concentration of the free inhibitor at 50% inhibition, [L]50 is the concentration of the free labeled ligand at 50% inhibition, [P]0 is the concentration of the free protein at 0% inhibition, Kd represents the dissociation constant of the FITC-MLL or 10mer-Thr-FAM probe for WDR5. Total fluorescence is also measured, to rule out compounds that are inherently fluorescent or able to act as quenchers in the assay. TR-FRET Binding Assay

[1] = test system: MV4:11 human cancer cell lines; assay: Cellular viability / anti-proliferative assay, CellTiter-Glo, 5 day protocol; type: cell-based; settings: Homo sapiens, MV4-11, 120 h, read-out: GI50 on cellular proliferation of MV4:11 human cancer cell lines
In short: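 MV-4-11 cells in IMDM with 10% FBS, 200 cells/well, exposed 5 days to 22 two-fold dilutions from 30 μM, final DMSO 0.3%. Viability read by CellTiter-Glo luminescence; GI50 from sigmoidal dose-response fit, mean of at least two replicates.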

[2] = MV4:11 cells, 5 day incubation, CellTiter-Glo, mean of at least two replicates

SMILES	Ki (WDR5) [nM]	GI50 [1, 2] [nM]	GI50 [1] [nM]
CCc1cc(C(=O)NCCOC)c2nc(C)cc(N3CCc4c(cc(Cn5ccnc5)cc4-c4cn(C)nc4C(F)(F)F)C3=O)c2c1 [Example 190, 4-(7-((1H-Imidazol-1-yl)methyl)-5-(1-methyl-3-(trifluoromethyl)-1H-pyrazol-4-yl)-1-oxo-3,4-dihydroisoquinolin-2(1H)-yl)-6-ethyl-N-(2-methoxyethyl)-2-methylquinoline-8-carboxamide]	< 0.02	< 20	–
CCn1cc(-c2cc(Cn3ccnc3)cc3c2CCN(c2cc(C)nc4ccc(OC)cc24)C3=O)c(C(F)(F)F)n1 [Example 53, 7-((1H-Imidazol-1-yl)methyl)-5-(1-ethyl-3-(trifluoromethyl)-1H-pyrazol-4-yl)-2-(6-methoxy-2-methylquinolin-4-yl)-3,4-dihydroisoquinolin-1(2H)-one]	< 0.02	59	–
COc1cc(CN2CCN3CCOC[C@@H]3C2)c2nccc(N3CCc4c(cc(Cn5ccnc5)cc4-c4cn(C)nc4C(F)(F)F)C3=O)c2c1 [Example 141, (S)-7-((1H-Imidazol-1-yl)methyl)-2-(8-((hexahydropyrazino[2,1-c][1,4]oxazin-8(1H)-yl)methyl)-6-methoxyquinolin-4-yl)-5-(1-methyl-3-(trifluoromethyl)-1H-pyrazol-4-yl)-3,4-dihydroisoquinolin-1(2H)-one]	0.07	< 20	–
CCc1ccc2cncc(N3CCc4c(cc(Cn5ccnc5)cc4-c4cn(C)nc4C(F)(F)F)C3=O)c2c1 [Example 89, 7-((1H-Imidazol-1-yl)methyl)-6′-ethyl-5-(1-methyl-3-(trifluoromethyl)-1H-pyrazol-4-yl)-3,4-dihydro-1H-[2,4′-biisoquinolin]-1-one]	0.022	22	–
CCc1cc(N2CCN(C)CC2)c2nccc(N3CCc4c(cc(Cn5ccnc5)cc4-c4cn(C)nc4C(F)(F)F)C3=O)c2c1 [Example 37, 7-((1H-Imidazol-1-yl)methyl)-2-(6-ethyl-8-(4-methylpiperazin-1-yl)quinolin-4-yl)-5-(1-methyl-3-(trifluoromethyl)-1H-pyrazol-4-yl)-3,4-dihydroisoquinolin-1(2H)-one]	< 0.02	< 20	–
CCc1cc(C(=O)NCCNC(=O)c2cnccn2)c2nccc(N3CCc4c(cc(Cn5ccnc5)cc4-c4cn(C)nc4C(F)(F)F)C3=O)c2c1 [Example 209, 4-(7-((1H-Imidazol-1-yl)methyl)-5-(1-methyl-3-(trifluoromethyl)-1H-pyrazol-4-yl)-1-oxo-3,4-dihydroisoquinolin-2(1H)-yl)-6-ethyl-N-(2-(pyrazine-2-carboxamido)ethyl)quinoline-8-carboxamide]	< 0.02	< 20	–
COc1cc(CN2CCN(C(C)=O)CC2)c2nccc(N3CCc4c(cc(Cn5ccnc5)cc4-c4cn(C)nc4C(F)(F)F)C3=O)c2c1 [Example 127, 7-((1H-Imidazol-1-yl)methyl)-2-(8-((4-acetylpiperazin-1-yl)methyl)-6-methoxyquinolin-4-yl)-5-(1-methyl-3-(trifluoromethyl)-1H-pyrazol-4-yl)-3,4-dihydroisoquinolin-1(2H)-one]	0.021	< 20	–
CCc1cc(N2CCOCC2)c2nccc(N3CCc4c(cc(Cn5ccnc5)cc4-c4cn(C)nc4C(F)(F)F)C3=O)c2c1 [Example 36, 7-((1H-Imidazol-1-yl)methyl)-2-(6-ethyl-8-morpholinoquinolin-4-yl)-5-(1-methyl-3-(trifluoromethyl)-1H-pyrazol-4-yl)-3,4-dihydroisoquinolin-1(2H)-one]	< 0.02	23	–
Cc1cc2c(N3CCc4c(cc(Cn5ccnc5)cc4-c4cn(C)nc4C(F)(F)F)C3=O)ccnc2n1C [Example 28, 7-((1H-Imidazol-1-yl)methyl)-2-(1,2-dimethyl-1H-pyrrolo[2,3-b]pyridin-4-yl)-5-(1-methyl-3-(trifluoromethyl)-1H-pyrazol-4-yl)-3,4-dihydroisoquinolin-1(2H)-one]	0.032	281	–
COc1cnc2c(c1)[C@@H](N1CCc3c(cc(Cn4ccnc4)cc3-c3cn(C)nc3C(F)(F)F)C1=O)CCC2 [Example 71, (S)-7-((1H-Imidazol-1-yl)methyl)-2-(3-methoxy-5,6,7,8-tetrahydroquinolin-5-yl)-5-(1-methyl-3-(trifluoromethyl)-1H-pyrazol-4-yl)-3,4-dihydroisoquinolin-1(2H)-one]	< 0.02	< 20	–
CCc1cc(N2C[C@H]3CN(C)C[C@H]3C2)c2nc(C)cc(N3CCc4c(cc(Cn5ccnc5)cc4-c4cn(C)nc4C(F)(F)F)C3=O)c2c1 [Example 197, 7-((1H-Imidazol-1-yl)methyl)-2-(6-ethyl-2-methyl-8-((3aR,6aS)-5-methylhexahydropyrrolo[3,4-c]pyrrol-2(1H)-yl)quinolin-4-yl)-5-(1-methyl-3-(trifluoromethyl)-1H-pyrazol-4-yl)-3,4-dihydroisoquinolin-1(2H)-one]	0.02	< 20	–
COc1cc(C)cc2c(N3CCc4c(cc(Cn5ccnc5)cc4-c4cn(C)nc4C(F)(F)F)C3=O)ccnc12 [Example 19, 7-((1H-Imidazol-1-yl)methyl)-2-(8-methoxy-6-methylquinolin-4-yl)-5-(1-methyl-3-(trifluoromethyl)-1H-pyrazol-4-yl)-3,4-dihydroisoquinolin-1(2H)-one]	0.02	26	–
COc1cnc2cccc(N3CCc4c(cc(Cn5ccnc5)cc4-c4cn(C)nc4C(F)(F)F)C3=O)c2c1 [Example 12, 7-((1H-Imidazol-1-yl)methyl)-2-(3-methoxyquinolin-5-yl)-5-(1-methyl-3-(trifluoromethyl)-1H-pyrazol-4-yl)-3,4-dihydroisoquinolin-1(2H)-one]	< 0.02	34	–
CN1CC[C@H](N2CCc3c(cc(Cn4ccnc4)cc3-c3cn(C)nc3C(F)(F)F)C2=O)c2cc(Cl)cnc21 [Example 73, (S)-7-((1H-Imidazol-1-yl)methyl)-2-(6-chloro-1-methyl-1,2,3,4-tetrahydro-1,8-naphthyridin-4-yl)-5-(1-methyl-3-(trifluoromethyl)-1H-pyrazol-4-yl)-3,4-dihydroisoquinolin-1(2H)-one]	< 0.02	–	< 20
COc1cc(OC)c2cncc(N3CCc4c(cc(Cn5ccnc5)cc4-c4cn(C)nc4C(F)(F)F)C3=O)c2c1 [Example 122, 7-((1H-Imidazol-1-yl)methyl)-6′,8′-dimethoxy-5-(1-methyl-3-(trifluoromethyl)-1H-pyrazol-4-yl)-3,4-dihydro-1H-[2,4′-biisoquinolin]-1-one]	0.052	27	–
CCc1cc(COC2CNC2)c2nccc(N3CCc4c(cc(Cn5ccnc5)cc4-c4cn(C)nc4C(F)(F)F)C3=O)c2c1 [Example 179, 7-((1H-Imidazol-1-yl)methyl)-2-(8-((azetidin-3-yloxy)methyl)-6-ethylquinolin-4-yl)-5-(1-methyl-3-(trifluoromethyl)-1H-pyrazol-4-yl)-3,4-dihydroisoquinolin-1(2H)-one]	< 0.02	33	–
CCc1cc(OC)cc2c(N3CCc4c(cc(Cn5ccnc5)cc4-c4cn(C)nc4C(F)(F)F)C3=O)ccnc12 [Example 149, 7-((1H-Imidazol-1-yl)methyl)-2-(8-ethyl-6-methoxyquinolin-4-yl)-5-(1-methyl-3-(trifluoromethyl)-1H-pyrazol-4-yl)-3,4-dihydroisoquinolin-1(2H)-one]	0.035	75	–
Cc1ccc2c(c1)C(N1CCc3c(cc(Cn4ccnc4C)cc3-c3cn(C)nc3C(F)(F)F)C1=O)CCO2 (stereo not shown) [Example 62, 7-((2-Methyl-1H-imidazol-1-yl)methyl)-5-(1-methyl-3-(trifluoromethyl)-1H-pyrazol-4-yl)-2-(6-methylchroman-4-yl)-3,4-dihydroisoquinolin-1(2H)-one]	0.028	25	–
COc1cnc2c(C)ccc(N3CCc4c(cc(Cn5ccnc5)cc4-c4cn(C)nc4C(F)(F)F)C3=O)c2c1 [Example 206, 7-((1H-Imidazol-1-yl)methyl)-2-(3-methoxy-8-methylquinolin-5-yl)-5-(1-methyl-3-(trifluoromethyl)-1H-pyrazol-4-yl)-3,4-dihydroisoquinolin-1(2H)-one]	0.022	43	–
CCc1cc(N)c2nccc(N3CCc4c(cc(Cn5ccnc5)cc4-c4cn(C)nc4C(F)(F)F)C3=O)c2c1 [Example 230, 7-((1H-Imidazol-1-yl)methyl)-2-(8-amino-6-ethylquinolin-4-yl)-5-(1-methyl-3-(trifluoromethyl)-1H-pyrazol-4-yl)-3,4-dihydroisoquinolin-1(2H)-one]	< 0.02	–	54
